Source: patent publication US11298403B2, “Therapeutic agent for inflammatory bowel disease” (StemRIM Inc., priority 2017, dated 2022)

Key:
Format in all cases: in vivo, C57BL/6 mice
[1] = test system: IBD model mice (DSS-induced enteritis); assay: DSS-induced colitis (IBD) model mice, Example 2: intravenous peptide on 1st, 3rd, 5th and 7th days; body weight, large intestine length, HE staining; conditions: 10th day of DSS drinking, 5 mg/kg i.v. on 1st
Procedure: (§1) Colitis was induced in C57BL/6 mice (8 to 10-week-old, male, body weight about 20 g) by allowing them to freely drink the 3% DSS aqueous solution in place of purified water (RO water) (drinking of the DSS aqueous solution was continued until the removal of the large intestine). Mice that were allowed to freely drink purified water (RO water) (hereinafter, referred to as “normal mice”) were used as comparative subjects.
(§2) The DSS aqueous solution and the HMGB1 peptide (1-44) were prepared and the inflammatory bowel disease model mice were produced in the same way as Example 1.
The IBD model mice produced as described in Example 1 were divided into the HMGB1 peptide (1-44) administration group (n=3) and the control group (n=3). The test substance was administered by injecting an HMGB1 peptide (1-44) solution, which has been adjusted to a concentration of 0.5 mg/ml with saline as the vehicle, into the vein at a dose of 200 μl/animal (5 mg/kg as the peptide dose) on the 1st, 3rd, 5th, and 7th days of DSS drinking. In the control group, saline was injected into the vein at a dose of 200 μl/animal on the 1st, 3rd, 5th, and 7th days of DSS drinking. No substance was administered to the normal mice (n=3).
The body weight of the mice was measured daily from the start of drinking the DSS aqueous solution until the removal of the large intestine. On the 10th day of DSS drinking, the large intestine was excised from the mice, and the length of the large intestine was measured. Tissue sections of the cross-section of the intestinal tract were produced using the terminal part near the anus of the excised large intestine, and hematoxylin-eosin (HE) staining was performed.

IL-6 = assay: Example 1: inflammatory cytokine mRNA in large intestine by quantitative PCR (IL-6); conditions: 9th day of DSS drinking, 5 mg/kg i.v. on 6th and 7th days, FIG. 3
Description: as §1
(§3) The IBD model mice produced as described above were divided into the HMGB1 peptide (1-44) administration group (n=3) and the control group (n=3). […] Hereinafter, “the Xth day after the start of drinking the DSS aqueous solution” is expressed as an abbreviation “the Xth day of DSS drinking”.
(§4) The body weight of the mice was measured daily from the start of drinking the DSS aqueous solution until the removal of the large intestine. On the 9th day of DSS drinking, the large intestine was excised from the mice, and the length of the large intestine was measured. mRNA was extracted from the terminal part near the anus in the excised large intestine, and the expression level of inflammatory cytokines (TNF-α, IL-1β, and IL-6) was analyzed by quantitative PCR.

TNF-α = assay: Example 1: inflammatory cytokine mRNA in large intestine by quantitative PCR (TNF-α); conditions: 9th day of DSS drinking, 5 mg/kg i.v. on 6th and 7th days, FIG. 3
Description: as §1, §3, §4

[2] = test system: IBD model mice (DSS-induced enteritis); assay: DSS-induced colitis (IBD) model mice, Example 3: peptide-containing hydrogel embedded on the back; body weight, large intestine length; conditions: 10th day of DSS drinking, MedGel PI5 hydrogel with 20 μl of 5 μg/μl peptide embedded on the back one day before DSS, n=3
Procedure: as §1, §2
A bioabsorbable hydrogel (MedGel (registered trademark) PI5, manufactured by MedGEL CO., LTD) cut into a size of about 5 mm×5 mm was soaked with 20 μl of an HMGB1 peptide (1-44) solution, which has been adjusted to a concentration of 5 μg/μl with saline as the vehicle, by dripping and allowed to stand under ice-cooling for 30 minutes. The resulting hydrogel was used for embedding in the mice of the HMGB1 peptide (1-44) administration group. […]
The body weight of the mice was measured daily from the start of drinking the DSS aqueous solution until the removal of the large intestine. On the 10th day of DSS drinking, the large intestine was excised from the mice, and the length of the large intestine was measured.

[3] = test system: IBD model mice (DSS-induced enteritis); assay: DSS-induced colitis (IBD) model mice, Example 1: intravenous peptide on 6th and 7th days; body weight and large intestine length; conditions: 9th day of DSS drinking, 5 mg/kg i.v. on 6th and 7th days, n=3
Procedure: Dextran sulfate sodium (DSS) (molecular weight 5,000 to 6,000, manufactured by Nacalai Tesque, catalog No. 10930-94) was dissolved in water to prepare a 3% (w/v) DSS aqueous solution. A peptide consisting of amino acid residues 1-44 of the human-derived HMGB1 protein (SEQ ID NO: 1) was chemically synthesized by a solid-phase method. Hereinafter, the HMGB1 fragment peptide is referred to as the HMGB1 peptide (1-44) and is expressed as an abbreviation “1-44” in the drawings corresponding to the Examples. […]
as §3, §4

IL-1β = assay: Example 1: inflammatory cytokine mRNA in large intestine by quantitative PCR (IL-1β); conditions: 9th day of DSS drinking, 5 mg/kg i.v. on 6th and 7th days, FIG. 3
Description: as §1, §3, §4

Substance: HMGB1 peptide (1-44): peptide consisting of amino acid residues 1-44 of the human-derived HMGB1 protein (SEQ ID NO: 1), chemically synthesized by a solid-phase method (MGKGDPKKPRGKMSSYAFFVQTCREEHKKKHPDASVNFSEFSKK)
- mucosal tissue damage of the large intestine (HE staining) ([1]; FIG. 6): damage of the mucosal tissue was suppressed
- body weight vs control group ([1]; n=3, FIG. 4): significantly higher than that of the control group
- length of the large intestine vs control group ([1]; n=3, FIG. 5): significantly longer than that of the control group
- expression level of IL-6 in the large intestine vs control group (IL-6): significantly lower than that of the control group
- expression level of TNF-α in the large intestine vs control group (TNF-α): significantly lower than that of the control group
- body weight vs control group ([2]; FIG. 7): higher than that of the control group
- length of the large intestine vs control group ([2]; FIG. 8): longer than that of the control group
- body weight vs control group ([3]; FIG. 1): significantly higher than that of the control group
- length of the large intestine vs control group ([3]; FIG. 2): significantly longer than that of the control group
- expression level of IL-1β in the large intestine vs control group (IL-1β): significantly lower than that of the control group
